Reference: US8258295B2, “Triazine derivatives, compositions containing such derivatives, and methods of treatment of cancer and autoimmune diseases using such derivatives” (Prometic Biosciences Inc., priority 2007, dated 2012)

Legend:
[1] = system: xenograft human prostate PC-3 tumor; experiment: Xenograft human prostate PC-3 tumor in nude mice; type: in vivo, mouse; conditions: FIG. 10A; CD1 nu/nu mice; compound IV 5 mg/kg
Method: PC-3 cells were grown in RPMI-1640 containing 10% fetal bovine serum. […] The animals were then serially monitored by manual palpation for evidence of tumor. […] Serial tumor volume was obtained by bi-dimensional diameter measurements with calipers, using the formula 0.4 (a×b^2) where “a” was the major tumor diameter and “b” the minor perpendicular diameter.

[2] = system: DNBS-induced colitis; experiment: DNBS-induced colitis in CD1 mice; type: in vivo; conditions: vs vehicle
Method: The 2,4-dinitrobenzene sulfonic acid (DNBS) induced experimental colitis mouse model serves as a model of inflammatory bowel disease. On day 0, CD1 mice were sensitized with DNBS by intra-colinic instillation of 0.1 ml of an ethanolic solution (30%) of DNBS (40 mg/ml). Compound V was administered orally once a day for four consecutive days at 25 mg/kg and 50 mg/kg, starting one hour after sensitization with DNBS. On the fourth day, mice were sacrificed and 8 cm of the distal colon was collected and opened longitudinally for macroscopic evaluation.

[3] = system: PGE2 production; experiment: LPS-induced PGE2 production in J774A.1 cells (ELISA); type: cell-based; conditions: Mus musculus, J774.A1, 24 hr, FIG. 11
Method: Effect of compounds on PGE2 production was measured by ELISA using J774A.1 cells stimulated by LPS. J774A.1 cells were cultured in the presence or absence of LPS and compound. Cells were cultured for 24 hr at 37° C. and thereafter the supernatants were collected for the determination of the concentration of PGE2 by ELISA as recommended by the manufacturer (GE Healthcare). Data was analyzed in Microsoft Excel software and the concentration of compound which inhibits 50% of PGE2 production (IC50) was calculated using Prism software.

[4] = system: experimental autoimmune encephalomyelitis (EAE); experiment: PLP-induced experimental autoimmune encephalomyelitis (EAE) in SJL mice; type: in vivo
Method: The PLP-induced experimental autoimmune encephalomyelitis (EAE) mouse model serves as a model of multiple sclerosis. On day O, SJL mice were immunized with 75 μg of PLP (139-151) emulsified in Freund's complete adjuvant (200 μl emulsion per mouse s.c. divided among four sites) and with pertussis toxin (200 ng, i.p.). The i.p. injection of pertussis toxin was repeated on day 2. Compound V was administered orally once a day at 25 mg/kg and 50 mg/kg, starting at day 0 and until 30 days post immunization, six times a week. […] Clinical grading of symptoms was carried out according to the following scale: 0=no illness, 1=flaccid tail, 2=moderate paraparesis, 3=severe paraparesis, 4=moribound state, 5=death.

SMILES	effect on PC-3 tumor growth [1]	DNBS-induced macroscopic damage area of the colon mucosal tissue ([2]; oral 25 mg/kg and 50 mg/kg, FIG. 22)	body weight ([2]; oral once a day for four days, 25 mg/kg and 50 mg/kg)	IC50 [3]	activity on clinical signs of EAE ([4]; oral 50 mg/kg, vs vehicle)	appearance of clinical signs of EAE ([4]; oral once a day, 25 mg/kg and 50 mg/kg, until 30 days, FIG. 23)
NCCCCCNc1nc(NCCc2ccc(S(N)(=O)=O)cc2)nc(Nc2cccc(F)c2)n1 [Compound II]	cytostatic (no growth) effect up to day 42	–	–	–	–	–
NCCCCCNc1nc(NCCc2ccc(O)cc2)nc(Nc2ccc(F)cc2)n1 [Compound V]	–	strong and significant decrease	weak but significant increase of body weight	2 µM	significant activity	reduces in a dose dependent manner the appearance of signs of EAE
